test system: Aβ production in SK-N-BE(2) neuroblastoma cells; assay: Test Example 3: Aβ production inhibition in cell (Aβ40 ELISA, SK-N-BE(2)); conditions: Homo sapiens, SKNBE2, 6 h, read-out: Test Example 3 IC50, SK-N-BE(2) cells, 6 hours, Aβ40 ELISA normalized by viability

Q: For `NC1=NC2(CO1)c1cc(-c3cncc(Cl)c3)ccc1OCC21CC1` (stereo not drawn) [RP 107], which IC50 is on record?
A: The IC50 was 460 nM.

Q: For `CC#Cc1cncc(-c2ccc3c(c2)C2(COC(N)=N2)C2(COC2)C2(CCC2)O3)c1` (stereo not drawn) [RP 109], which IC50 is on record?
A: Its IC50 is 48 nM.

Q: How did the IC50 turn out when `CC#Cc1cncc(-c2ccc3c(c2)C2(COC(N)=N2)C2(COC2)C(C)(C)O3)c1` (stereo not drawn) [RP 110] was run?
A: Its IC50 is 9.2 nM.

Q: With `CC#Cc1cncc(-c2ccc3c(c2)C2(COC(N)=N2)C2(CC2)CO3)c1` (stereo not drawn) [RP 111] as the compound, how does the IC50 read?
A: Its IC50 is 140 nM.

Q: With `CC#Cc1cncc(-c2cc3c(cc2F)OCC2(CC2)C32COC(N)=N2)c1` (stereo not drawn) [RP 112] as the compound, how does the IC50 read?
A: Its IC50 is 660 nM.

Q: `CC#Cc1cncc(-c2ccc3c(c2)C2(COC(N)=N2)C2(CCC2)CO3)c1` (stereo not drawn) [RP 113] was tested. Which IC50 did it give?
A: Its IC50 is 470 nM.

Q: Which IC50 does the source give for `N#Cc1ncccc1-c1ccc2c(c1)C1(COC(N)=N1)C1(COC1)C1(CCC1)O2` (stereo not drawn) [RP 115, 3-(2″-aminotrispiro[cyclobutane-1,2′-chromene-4′,4″-[1,3]oxazole-3′,3′″-oxetan]-6′-yl)pyridine-2-carbonitrile] here?
A: The IC50 was 1100 nM.

Q: With `NC1=NC2(CO1)c1cc(-c3cncc(C(F)F)c3)ccc1OC1(CCC1)C21COC1` (stereo not drawn) [RP 118] as the compound, how does the IC50 read?
A: The IC50 was 990 nM.

Q: How did the IC50 turn out when `N#Cc1cncc(-c2ccc3c(c2)C2(COC(N)=N2)C2(COC2)C2(CCC2)O3)c1` (stereo not drawn) [RP 120] was run?
A: The IC50 was 2300 nM.

Q: `COc1cc(-c2ccc3c(c2)C2(COC(N)=N2)C2(COC2)C2(CCC2)O3)c(F)cn1` (stereo not drawn) [RP 122] was tested. Which IC50 did it give?
A: The IC50 was 1100 nM.

Q: With `NC1=NC2(CO1)c1cc(-c3cccc(F)c3)ccc1OC1(CCC1)C21COC1` (stereo not drawn) [RP 125] as the compound, how does the IC50 read?
A: Its IC50 is 580 nM.

Q: For `COc1cccc(-c2ccc3c(c2)C2(COC(N)=N2)C2(COC2)C2(CCC2)O3)c1` (stereo not drawn) [RP 126], which IC50 is on record?
A: Its IC50 is 1200 nM.

Q: With `Cc1cccc(-c2ccc3c(c2)C2(COC(N)=N2)C2(COC2)C2(CCC2)O3)c1` (stereo not drawn) [RP 127] as the compound, how does the IC50 read?
A: The IC50 was 1800 nM.

Q: How did the IC50 turn out when `N#Cc1cccc(-c2ccc3c(c2)C2(COC(N)=N2)C2(COC2)C2(CCC2)O3)c1` (stereo not drawn) [RP 128] was run?
A: Its IC50 is 1500 nM.

Q: `CCOc1cc(-c2ccc3c(c2)C2(COC(N)=N2)C2(COC2)C2(CCC2)O3)cc(C(F)(F)F)c1` (stereo not drawn) [RP 129] was tested. Which IC50 did it give?
A: The IC50 was 7300 nM.

Q: With `NC1=NC2(CO1)c1cc(-c3cc(F)ccc3F)ccc1OC1(CCC1)C21COC1` (stereo not drawn) [RP 130] as the compound, how does the IC50 read?
A: The IC50 was 1700 nM.

Q: For `CCOc1cccc(-c2ccc3c(c2)C2(COC(N)=N2)C2(COC2)C2(CCC2)O3)c1` (stereo not drawn) [RP 131], which IC50 is on record?
A: Its IC50 is 3200 nM.

Q: `N#C/C=C/c1cccc(-c2ccc3c(c2)C2(COC(N)=N2)C2(COC2)C2(CCC2)O3)c1` (stereo not drawn) [RP 132] was tested. Which IC50 did it give?
A: Its IC50 is 1200 nM.

Q: Which IC50 does the source give for `CCOc1cc(F)cc(-c2ccc3c(c2)C2(COC(N)=N2)C2(COC2)C2(CCC2)O3)c1` (stereo not drawn) [RP 133] here?
A: Its IC50 is 2800 nM.

Q: For `NC1=NC2(CO1)c1cc(C3=CCCCC3)ccc1OC1(CCC1)C21COC1` (stereo not drawn) [RP 135], which IC50 is on record?
A: The IC50 was 1800 nM.

Q: How did the IC50 turn out when `COc1ccc(F)c(-c2ccc3c(c2)C2(COC(N)=N2)C2(COC2)C2(CCC2)O3)c1` (stereo not drawn) [RP 136, 6′-(2-fluoro-5-methoxyphenyl)trispiro[cyclobutane-1,2′-chromene-4′,4″-[1,3]oxazole-3′,3′″-oxetan]-2″-amine] was run?
A: Its IC50 is 660 nM.

Q: With `COc1cccc(-c2ccc3c(c2)C2(COC(N)=N2)C2(COC2)C2(CCC2)O3)c1F` (stereo not drawn) [RP 137] as the compound, how does the IC50 read?
A: The IC50 was 830 nM.

Q: How did the IC50 turn out when `NC1=NC2(CO1)c1cc(-c3cccc(F)c3F)ccc1OC1(CCC1)C21COC1` (stereo not drawn) [RP 138] was run?
A: Its IC50 is 1500 nM.

Q: How did the IC50 turn out when `CC1(C)Oc2ccc(-c3cccc(Cl)c3)cc2C2(COC(N)=N2)C12COC2` (stereo not drawn) [RP 139] was run?
A: The IC50 was 140 nM.

Q: `CC1(C)Oc2ccc(-c3cccc(C4CC4)c3)cc2C2(COC(N)=N2)C12COC2` (stereo not drawn) [RP 140] was tested. Which IC50 did it give?
A: The IC50 was 410 nM.

Q: `CC1(C)Oc2ccc(-c3cccc(C(F)(F)F)c3)cc2C2(COC(N)=N2)C12COC2` (stereo not drawn) [RP 141] was tested. Which IC50 did it give?
A: The IC50 was 1300 nM.

Q: How did the IC50 turn out when `COc1cccc(-c2ccc3c(c2)C2(COC(N)=N2)C2(COC2)C(C)(C)O3)c1` (stereo not drawn) [RP 142] was run?
A: The IC50 was 150 nM.

Q: With `CCOc1cccc(-c2ccc3c(c2)C2(COC(N)=N2)C2(COC2)C(C)(C)O3)c1` (stereo not drawn) [RP 144] as the compound, how does the IC50 read?
A: The IC50 was 460 nM.

Q: How did the IC50 turn out when `CC1(C)Oc2ccc(-c3cc(F)cc(Cl)c3)cc2C2(COC(N)=N2)C12COC2` (stereo not drawn) [RP 146, 6′-(3-chloro-5-fluorophenyl)-2′,2′-dimethyldispiro[1,3-oxazole-4,4′-chromene-3′,3″-oxetan]-2-amine] was run?
A: Its IC50 is 210 nM.

Q: With `CC1(C)Oc2ccc(-c3cc(F)cc(F)c3)cc2C2(COC(N)=N2)C12COC2` (stereo not drawn) [RP 147] as the compound, how does the IC50 read?
A: The IC50 was 170 nM.

— US9242973B2, “Chromane compounds” (CoMentis, Inc., priority 2012, dated 2016)
